Assay results from paper PMC8286840, “Identifying SARS-CoV-2 antiviral compounds by screening for small molecule inhibitors of Nsp3 papain-like protease” (Biochemical Journal, 2021).
Where a name gives a salt, the structure may show the parent alone. Read-outs that look alike come from different tables or passages of the source.

Key:
[1] = target: T1, SARS-CoV-2 PLpro (nsp3 1564–1878) (Severe acute respiratory syndrome coronavirus 2, UniProt P0DTD1); assay: biochemical; set-up: FRET-quenched peptide (Pro3) cleavage by PLpro, 10 min pre-incubation, slope over 20 min, normalised to no-compound control; details: low concentration screen, read-out: % of control remaining
[2] = target: T1, SARS-CoV-2 PLpro (nsp3 1564–1878); assay: biochemical; set-up: FRET-quenched peptide (Pro3) cleavage by PLpro, 10 min pre-incubation, slope over 20 min, normalised to no-compound control; details: high concentration screen, read-out: % of control remaining

NCCc1c[nH]c2ccc(C(N)=O)cc12 [5-Carboxamidotryptamine maleate]
remaining activity at 1.25 µM ([1]; Well no.=533): 104% | remaining activity at 3.75 µM ([2]; Well no.=533): 104%

CO[C@@]1(NC(=O)CSCC#N)C(=O)N2C(C(=O)O)=C(CSc3nnnn3C)CS[C@@H]21 [Cefmetazole sodium]
remaining activity at 1.25 µM ([1]; Well no.=134): 101% | remaining activity at 3.75 µM ([2]; Well no.=134): 99.6%

C[C@@]1(c2cc(-c3cncnc3)c(F)cc2F)CCSC(N)=N1 [LY2811376]
remaining activity at 1.25 µM ([1]; Well no.=4949): 101% | remaining activity at 3.75 µM ([2]; Well no.=4949): 103%

Nc1ccc(N2C(=O)c3ccccc3C2=O)c(Cl)c1 [N-(4-Amino-2-chlorophenyl)phthalimide]
remaining activity at 1.25 µM ([1]; Well no.=344): 95.3% | remaining activity at 3.75 µM ([2]; Well no.=344): 96.5%

CNC[C@H](O)[C@@H](O)[C@H](O)[C@H](O)CO [Meglumine]
remaining activity at 1.25 µM ([1]; Well no.=1565): 104% | remaining activity at 3.75 µM ([2]; Well no.=1565): 104%

C[n+]1c2ccccc2nc2ccccc21 [5-methylphenazin-5-ium methyl sulfate]
remaining activity at 1.25 µM ([1]; Well no.=5668): 91.9% | remaining activity at 3.75 µM ([2]; Well no.=5668): 89.8%

NS(=O)(=O)c1ccc(S(=O)(=O)Nc2cccc3c(Cl)c[nH]c23)cc1 [Indisulam]
remaining activity at 1.25 µM ([1]; Well no.=6068): 94.4% | remaining activity at 3.75 µM ([2]; Well no.=6068): 95%

CC(C)(O)CNc1nc(Nc2ccnc(C(F)(F)F)c2)nc(-c2cccc(C(F)(F)F)n2)n1 [Enasidenib (AG-221)]
remaining activity at 1.25 µM ([1]; Well no.=8582): 101% | remaining activity at 3.75 µM ([2]; Well no.=8582): 101%

COCCCOc1cc(C[C@@H](C[C@H](N)[C@@H](O)C[C@H](C(=O)NCC(C)(C)C(N)=O)C(C)C)C(C)C)ccc1OC [Aliskiren hemifumarate]
remaining activity at 1.25 µM ([1]; Well no.=5148): 107% | remaining activity at 3.75 µM ([2]; Well no.=5148): 104%

C[C@@H](NC(=O)/C(C#N)=C/c1ccc(O)c(O)c1)c1ccccc1 [Tyrphostin AG 527]
remaining activity at 1.25 µM ([1]; Well no.=1431): 97.8% | remaining activity at 3.75 µM ([2]; Well no.=1431): 100%

Nc1ccc(S(=O)(=O)Nc2cnc3ccccc3n2)cc1 [Sulfaquinoxaline sodium salt]
remaining activity at 1.25 µM ([1]; Well no.=8124): 103% | remaining activity at 3.75 µM ([2]; Well no.=8124): 100%

S=C(S)OC1CC2CC1C1CCCC21 (mixture of isomers) [D-609 potassium]
remaining activity at 1.25 µM ([1]; Well no.=1374): 99.3% | remaining activity at 3.75 µM ([2]; Well no.=1374): 99%

S=c1[nH]cnc2nc[nH]c12 [Mercaptopurine]
remaining activity at 1.25 µM ([1]; Well no.=4771): 104% | remaining activity at 3.75 µM ([2]; Well no.=4771): 105%

O=C(O)C1CCCN(CCC=C(c2ccccc2)c2ccccc2)C1 (centres unmarked) [SKF 89976A hydrochloride]
remaining activity at 1.25 µM ([1]; Well no.=1323): 99.7% | remaining activity at 3.75 µM ([2]; Well no.=1323): 102%

COc1ccc2c(c1O)-c1c3c(cc4c1[C@H](C2)N(C)CC4)OCO3 [(+)-Bulbocapnine hydrochloride]
remaining activity at 1.25 µM ([1]; Well no.=494): 102% | remaining activity at 3.75 µM ([2]; Well no.=494): 102%

CCCC(N)C(=O)O (racemic) [DL-Norvaline]
remaining activity at 1.25 µM ([1]; Well no.=7399): 108% | remaining activity at 3.75 µM ([2]; Well no.=7399): 108% | remaining activity at 3.75 µM ([2]; Well no.=8563): 109%

c1cc(-c2cnn3cc(-c4ccc(OCCN5CCCCC5)cc4)cnc23)ccn1 [AMPK Inhibitor, Compound C]
remaining activity at 1.25 µM ([1]; Well no.=2324): 98.4% | remaining activity at 3.75 µM ([2]; Well no.=2324): 103%

c1cc(-c2sc(-c3ccncc3)c(-c3ccncc3)c2-c2ccncc2)ccn1 [GANT58]
remaining activity at 1.25 µM ([1]; Well no.=5874): 94.6% | remaining activity at 3.75 µM ([2]; Well no.=5874): 86.5%

CCOC(=O)N1CCC(NCCNC(=O)c2ccccc2C)CC1 [VU0357017 (hydrochloride)]
remaining activity at 1.25 µM ([1]; Well no.=6995): 97.4% | remaining activity at 3.75 µM ([2]; Well no.=6995): 95.5%

C[C@H]1O[C@H](O[C@H]2[C@H](O)[C@@H](O)[C@@H](O[C@H]3[C@H](O)[C@@H](O)C(O)O[C@@H]3CO)O[C@@H]2CO)[C@H](O)[C@@H](O)[C@@H]1N[C@H]1C=C(CO)[C@@H](O)[C@H](O)[C@H]1O (some centres unmarked) [Acarbose]
remaining activity at 1.25 µM ([1]; Well no.=5149): 101% | remaining activity at 3.75 µM ([2]; Well no.=5149): 104%

C[C@]12C=CC(=O)C=C1CC[C@@H]1[C@@H]2C(=O)C[C@@]2(C)[C@H]1CC[C@]2(O)C(=O)CO [Prednisone]
remaining activity at 1.25 µM ([1]; Well no.=2149): 97.7% | remaining activity at 1.25 µM ([1]; Well no.=7429): 109% | remaining activity at 3.75 µM ([2]; Well no.=2149): 103% | remaining activity at 3.75 µM ([2]; Well no.=7429): 101%

CP(=O)(O)CCCN [SKF 97541 hydrochloride]
remaining activity at 1.25 µM ([1]; Well no.=66): 97.4% | remaining activity at 3.75 µM ([2]; Well no.=66): 98.7%

Cc1c(NC(=O)c2cc(C(N)=O)nc3cc(F)ccc23)c(C(F)(F)F)nn1Cc1ccc(C#N)cc1 [BAY-876]
remaining activity at 1.25 µM ([1]; Well no.=8680): 101% | remaining activity at 3.75 µM ([2]; Well no.=8680): 98.3%

COc1cc2ncnc(Nc3cccc(Cl)c3)c2cc1OC [Tyrphostin AG 1478]
remaining activity at 1.25 µM ([1]; Well no.=1191): 100% | remaining activity at 3.75 µM ([2]; Well no.=1191): 100%

C#CCCCCCCCCCCCCCCCC(=O)O [17-Octadecynoic acid]
remaining activity at 1.25 µM ([1]; Well no.=4351): 105% | remaining activity at 3.75 µM ([2]; Well no.=4351): 104%

C[C@H](CCC(=O)NCC(=O)O)[C@H]1CC[C@H]2[C@@H]3[C@H](O)C[C@@H]4C[C@H](O)CC[C@]4(C)[C@H]3C[C@H](O)[C@]12C [Glycocholic acid]
remaining activity at 1.25 µM ([1]; Well no.=7068): 106% | remaining activity at 1.25 µM ([1]; Well no.=7165): 104% | remaining activity at 3.75 µM ([2]; Well no.=7068): 105% | remaining activity at 3.75 µM ([2]; Well no.=7165): 101%

CC1=CC(=O)C2=C(C)CC[C@@H]3[C@H](OC(=O)[C@H]3C)[C@@H]12 [Leucomisine]
remaining activity at 1.25 µM ([1]; Well no.=3248): 94.5% | remaining activity at 3.75 µM ([2]; Well no.=3248): 96.8%

Cc1ccc(C(=O)N(CCCN)[C@@H](c2nc3cc(Cl)ccc3c(=O)n2Cc2ccccc2)C(C)C)cc1 [Ispinesib (SB-715992)]
remaining activity at 1.25 µM ([1]; Well no.=5243): 94.6% | remaining activity at 3.75 µM ([2]; Well no.=5243): 92.3%

Cc1cc(SCc2sc(-c3ccc(C(F)(F)F)c(F)c3)nc2C)ccc1OCC(=O)O [GW0742]
remaining activity at 1.25 µM ([1]; Well no.=5214): 100% | remaining activity at 3.75 µM ([2]; Well no.=5214): 98.5%

CNC(=O)[C@H]1O[C@@H](n2cnc3c(NCc4cccc(I)c4)nc(Cl)nc32)[C@H](O)[C@@H]1O [Namodenoson]
remaining activity at 1.25 µM ([1]; Well no.=8451): 104% | remaining activity at 3.75 µM ([2]; Well no.=8451): 104%

Cc1cc(C(=O)O)ccc1O [4-Hydroxy-3-methylbenzoic acid]
remaining activity at 1.25 µM ([1]; Well no.=6723): 100% | remaining activity at 3.75 µM ([2]; Well no.=6723): 101%

C[C@H](CCC(=O)NCCS(=O)(=O)O)[C@H]1CC[C@H]2[C@@H]3[C@@H](O)C[C@@H]4C[C@H](O)CC[C@]4(C)[C@H]3CC[C@]12C [Tauroursodeoxycholate dihydrate]
remaining activity at 1.25 µM ([1]; Well no.=7112): 95.4% | remaining activity at 3.75 µM ([2]; Well no.=7112): 93.5%

CC(=O)N[C@@H](C(=O)O)C(C)(C)SN=O [S-Nitroso-N-acetylpenicillamine]
remaining activity at 1.25 µM ([1]; Well no.=1045): 99.8% | remaining activity at 3.75 µM ([2]; Well no.=1045): 98.3%
